pIC50: −log10 of the molar value.
What was measured:
[1] = test system: spontaneously hypertensive animals; conditions: cited from earlier work
[2] = test system: animals undergoing experimental autoimmune encephalomyelitis (EAE); conditions: mouse, in vivo; cited from earlier work
[3] = test system: central airways in the murine chronic model; conditions: murine chronic asthma model; cited from earlier work
[4] = biological target: human arginase I (ARG I) (Homo sapiens (Human), UniProt P05089); assay: Inhibition of arginase I, spectrophotometric urea assay at 530 nm; format: biochemical; conditions: potency rank 1-5; pH 7.4, 37° C., 60 minutes
Chain of human arginase I (ARG I) (P05089 whole entry): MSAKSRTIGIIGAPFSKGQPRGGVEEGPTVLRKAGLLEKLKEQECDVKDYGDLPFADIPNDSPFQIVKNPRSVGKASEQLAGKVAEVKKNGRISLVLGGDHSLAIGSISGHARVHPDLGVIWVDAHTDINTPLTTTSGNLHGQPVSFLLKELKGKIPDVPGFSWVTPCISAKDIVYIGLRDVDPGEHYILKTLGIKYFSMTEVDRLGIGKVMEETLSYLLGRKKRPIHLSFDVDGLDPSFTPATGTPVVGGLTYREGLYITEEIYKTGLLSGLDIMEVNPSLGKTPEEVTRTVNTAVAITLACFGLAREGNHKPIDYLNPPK

[5] = biological target: human arginase II (ARG II) (Homo sapiens (Human), UniProt P78540); assay: Inhibition of arginase II, spectrophotometric urea assay at 530 nm; format: biochemical; conditions: potency rank 1-5; pH 7.4, 37° C., 60 minutes
Chain of human arginase II (ARG II) (P78540 23-354): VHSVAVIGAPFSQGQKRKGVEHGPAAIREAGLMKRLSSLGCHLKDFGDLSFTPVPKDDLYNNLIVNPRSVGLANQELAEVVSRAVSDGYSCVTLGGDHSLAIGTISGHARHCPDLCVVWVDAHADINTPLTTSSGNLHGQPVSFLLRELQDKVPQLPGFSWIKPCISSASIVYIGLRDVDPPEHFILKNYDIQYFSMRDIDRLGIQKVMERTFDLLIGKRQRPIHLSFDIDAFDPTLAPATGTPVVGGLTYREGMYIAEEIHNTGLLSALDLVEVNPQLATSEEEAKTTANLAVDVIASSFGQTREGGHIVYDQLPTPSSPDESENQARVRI

[6] = test system: bacterial arginase; conditions: cited from earlier work

SMILES | pIC50 [4] | pIC50 [5] | further results
N=C(NO)NCC[C@H](N)C(=O)O [nor-NOHA, N^ω-hydroxy-nor-L-arginine] |  |  | effect on blood pressure [1]: lowered blood pressure
NC(CCCCB(O)O)C(=O)O (stereo not drawn) [ABH, amino-6-boronohexanoic acid] |  |  | severity of EAE versus control animals [2]: much milder form of EAE
N[C@@H](CSCCB(O)O)C(=O)O [S-(2-boronoethyl)-L-cysteine] |  |  | methacholine induced responsiveness of the central airways [3]: attenuated
NCC[C@H]1C[C@H](CCCB(O)O)[C@](N)(C(=O)O)C1 (racemic) [Example 66, (1S,2S,4R)-1-amino-4-(2-aminoethyl)-2-(3-boronopropyl)cyclopentanecarboxylic acid] | 6.60 to 10.00 | 6.60 to 10.00 | 
NC(=NCCC[C@H](N)C(=O)O)NO [NOHA] |  |  | CD3 expression on T-cells [6]: reestablished CD3 expression on T-cells; production of NO by macrophages [6]: enhanced production of NO by macrophages

Now from value to compound, other results behind:

pIC50 [4] | pIC50 [5] | SMILES | further results
6.60 to 10.00 | 6.60 to 10.00 | N[C@@]1(C(=O)O)CN(CCNCc2ccccc2)C[C@@H]1CCCB(O)O [Example 40, (3R,4S)-3-amino-1-(2-(benzylamino)ethyl)-4-(3-boronopropyl)pyrrolidine-3-carboxylic acid] | 
6.00 to 6.60 | 5.70 to 6.00 | NC(Cc1ccc(C(F)(F)F)cc1)C(=O)N1C[C@H](CCCB(O)O)[C@](N)(C(=O)O)C1 (mixture of isomers) [Example 54, (3R,4S)-3-amino-1-(2-amino-3-(4-(trifluoromethyl)phenyl)propanoyl)-4-(3-boronopropyl)pyrrolidine-3-carboxylic acid] | 
6.00 to 6.60 | 5.70 to 6.00 | N[C@@]1(C(=O)O)CN(Cc2ccccc2)C[C@@H]1CCCB(O)O [Example 12, (3R,4S)-3-amino-1-benzyl-4-(3-boronopropyl)pyrrolidine-3-carboxylic acid] | 
6.00 to 6.60 | 6.00 to 6.60 | N[C@@]1(C(=O)O)CN(c2cncc(C(=O)O)c2)C[C@@H]1CCCB(O)O [Example 25, 5-((3R,4S)-3-amino-4-(3-boronopropyl)-3-carboxypyrrolidin-1-yl)nicotinic acid] | 

— US10098902B2, “Arginase inhibitors as therapeutics” (Mars, Incorporated, priority 2010, dated 2018)
